In BindingDB's records for doi:10.1021/acs.jmedchem.6b01918 (Bristol Myers Squibb, 2017):

Experiment: Inhibition of Nav1.7 in C57BL/6 […] embryonic DRG cells assessed as blockade of spontaneous neuronal firing by Maestro microelectrode array analysis

IC50: 1.2 nM
Structure (SMILES): N[C@H]1CC[C@@H](CNc2cc(F)c(S(=O)(=O)Nc3nccs3)cc2Cl)CC1
